In one assay the target is T1, ATB^0 (Homo sapiens, UniProt Q15758).
T1 sequence (Q15758 1-541): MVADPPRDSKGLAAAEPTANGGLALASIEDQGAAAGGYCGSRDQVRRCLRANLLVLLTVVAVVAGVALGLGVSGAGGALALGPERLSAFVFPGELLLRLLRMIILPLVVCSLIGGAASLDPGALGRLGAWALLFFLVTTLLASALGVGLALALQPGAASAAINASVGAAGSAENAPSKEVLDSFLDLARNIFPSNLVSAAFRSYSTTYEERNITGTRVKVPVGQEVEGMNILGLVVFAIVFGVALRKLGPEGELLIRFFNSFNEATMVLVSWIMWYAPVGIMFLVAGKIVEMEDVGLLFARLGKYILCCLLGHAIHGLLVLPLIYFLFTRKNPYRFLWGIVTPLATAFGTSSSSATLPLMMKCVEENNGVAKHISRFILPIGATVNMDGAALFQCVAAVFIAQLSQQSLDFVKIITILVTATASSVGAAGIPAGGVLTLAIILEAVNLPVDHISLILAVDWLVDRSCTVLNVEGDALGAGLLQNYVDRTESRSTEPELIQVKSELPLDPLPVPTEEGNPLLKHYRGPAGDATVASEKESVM
The assay can be described thus: D-[3H]-serine transport in HRPE cells transfected with transporter cDNA. To be noted: D-[3H]-serine 5 μM. Further details: expressed in transfected cells; host or cells: HRPE cells. The class given is cell-based. As for the experimental part: (§1) Transport of D-[^3H]-serine (5 μM) was measured in HRPE cells transfected with cDNA of each transporter.
(§2) The present inventors evaluated the function of 10 different amino acid transporter clones with respect to transport of D-serine in heterologous expression systems (FIG. 11). All of these transporters are expressed in the intestinal tract. The list of the transporters tested include three energy-independent, heterodimeric facilitative transporters (L1, L2, and b^0,+), three subtypes of the Na^+-coupled system A (ATA1, ATA2, and ATA3), two subtypes of the Na^+- and H^+-coupled system N (SN1 and SN2), the Na^+-coupled system ATB^0, and the Na^+- and Cl^−-coupled system ATB^0,+. […] The ability to transport D-serine was the highest for the Na^+- and Cl^−-coupled transporter ATB^0,+. ATB^0,+ belongs to the gene family of neurotransmitter transporters whose transport function is energized by multiple driving forces, namely a Na^+ gradient, a Cl^− gradient, and membrane potential. […] Based on the energetics of these two transport systems, ATB^0,+ is expected to play the leading role in this process.

In a further assay the target is T2, ATA1 (Homo sapiens, UniProt Q9H2H9).
T2 construct: expressed in transfected cells; host or cells: HRPE cells
T2 sequence (Q9H2H9 1-487): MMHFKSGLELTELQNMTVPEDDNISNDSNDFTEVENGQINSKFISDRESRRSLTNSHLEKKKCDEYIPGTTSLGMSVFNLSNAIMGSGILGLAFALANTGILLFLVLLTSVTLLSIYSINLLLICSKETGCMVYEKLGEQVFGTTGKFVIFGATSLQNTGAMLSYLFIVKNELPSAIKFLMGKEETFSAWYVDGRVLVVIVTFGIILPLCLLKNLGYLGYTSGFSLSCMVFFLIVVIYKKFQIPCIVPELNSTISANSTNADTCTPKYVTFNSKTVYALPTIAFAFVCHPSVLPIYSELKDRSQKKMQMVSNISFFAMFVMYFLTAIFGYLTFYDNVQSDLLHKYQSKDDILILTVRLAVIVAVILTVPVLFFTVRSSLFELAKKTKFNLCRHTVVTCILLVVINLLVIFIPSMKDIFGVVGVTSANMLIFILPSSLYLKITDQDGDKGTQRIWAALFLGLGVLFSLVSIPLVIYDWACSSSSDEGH
The assay is described as above. The class given is cell-based. To be noted: D-[3H]-serine 5 μM. As for the experimental part:
as §1, §2

For the compound `N[C@H](CO)C(=O)O` [D-Serine, D-serine], the results for the D-serine transport entry at ATB^0 and at ATA1 were “able to transport D-serine to a marked extent” and “showed D-serine transport activity”, respectively.

Source of the values: patent US20040142317A1, “Use of amino acid transporter atbo,+ as a delivery system for drugs and prodrugs” (priority 2003, published 2004).
